Laboratory results as given in patent US11261186B2, “Biaryl derivative as GPR120 agonist” (LG CHEM, LTD., priority 2014, dated 2022).

Target: T1, hGPR120 (Homo sapiens, UniProt Q5NUL3)
T1 construct: expressed in transfected cells; host or cells: CHO-K1
T1 sequence (Q5NUL3 1-361): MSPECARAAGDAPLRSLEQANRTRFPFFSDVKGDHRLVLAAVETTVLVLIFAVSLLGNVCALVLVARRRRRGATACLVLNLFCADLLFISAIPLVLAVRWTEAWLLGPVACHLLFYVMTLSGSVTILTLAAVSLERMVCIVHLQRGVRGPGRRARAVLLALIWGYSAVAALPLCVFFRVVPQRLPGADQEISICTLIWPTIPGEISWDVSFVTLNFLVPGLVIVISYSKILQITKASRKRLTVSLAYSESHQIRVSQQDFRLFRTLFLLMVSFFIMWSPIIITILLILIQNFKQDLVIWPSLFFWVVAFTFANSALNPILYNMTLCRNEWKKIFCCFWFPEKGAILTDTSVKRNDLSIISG
Experiment: Measurement of Activity of GPR120 Agonist (Cell-Based Assay), Calcium 5 dye fluorescence
Details: CHO-K1 cells expressing Ga16 and hGPR120
In short: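 Fluorescence increase (Ex 485 nm, Em 525 nm) after agonist addition was calculated as relative percent of the 1% DMSO-only signal. Cells were CHO-K1 stably carrying Gα16 plus human GPR120, dye-loaded for 1 h after overnight (18 h) culture.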

Structure (SMILES) | EC50 [nM]
O=C(O)CCCCc1ccc(-c2cccnc2SC2CCCC2)cc1 [Example 29, 5-[4-(2-cyclopentylsulfanyl-3-pyridyl)phenyl]pentanoic acid] | < 200
O=C(O)CCCCc1c(F)cc(-c2cccc(OC3CCCC3)n2)cc1F [Example 33, 5-[4-(6-cyclopentoxy-2-pyridyl)-2,6-difluoro-phenyl]pentanoic acid] | < 200
Cc1cc(OC2CCC2)nc(-c2cc(F)c(OCC3CC3C(=O)O)c(Cl)c2)n1 (stereo not shown) [Example 553, 2-[2-chloro-4-(4-cyclobutoxy-6-methyl-pyrimidin-2-yl)-6-fluoro-phenoxymethyl]-cyclopropanecarboxylic acid] | 200 to 2000
CC(CCCC(=O)O)c1c(F)cc(-c2cccc(NC3CCCC3)c2)cc1F (stereo not shown) [Example 52, 5-(3′-cyclopentylamino-3,5-difluoro-biphenyl-4-yl)-hexanoic acid] | < 200
O=C(O)CCC1CCc2cc(-c3cccnc3OC3CCOCC3)ccc2S1 (stereo not shown) [Example 284, 3-{6-[2-(tetrahydro-pyran-4-yloxy)-pyridin-3-yl]-thiochroman-2-yl}-propionic acid] | 200 to 2000
O=C(O)CCCCc1c(F)cc(-c2cccnc2SC2CCC2)cc1F [Example 35, 5-[4-(2-cyclobutylsulfanyl-3-pyridyl)-2,6-difluoro-phenyl]pentanoic acid] | < 200
O=C(O)CCCOc1c(F)cc(-c2cccc3c2OC2(CCCC2)C3)cc1F [Example 261, 4-(2,6-difluoro-4-spiro[3H-benzofuran-2,1′-cyclopentan]-7-yl-phenoxy)-butyric acid] | < 200
O=C(O)CCC1CCc2cc(-c3cccc(OC4CCC4)n3)ccc2O1 (stereo not shown) [Example 444, 3-[6-[6-(cyclobutoxy)-2-pyridyl]chroman-2-yl]propanoic acid] | < 200
CC(C)Oc1ncccc1-c1cc(F)c(OCc2cc(O)no2)c(F)c1 [Example 69, 5-[[2,6-difluoro-4-(2-isopropoxy-3-pyridyl)phenoxy]methyl]isoxazol-3-ol] | < 200
O=C(O)CCCOc1c(Cl)cc(-c2cccc(OC3CCC3)n2)cc1Cl [Example 386, 4-[2,6-dichloro-4-[6-(cyclobutoxy)-2-pyridyl]phenoxy]butanoic acid] | < 200
CCCSc1ncccc1-c1ccc(CCCc2noc(=O)[nH]2)cc1 [Example 63, 3-[3-[4-(2-propylsulfanyl-3-pyridyl)phenyl]propyl]-4H-1,2,4-oxadiazol-5-one] | 2000 to 20000
O=C(O)CC1CCN(c2c(F)cc(-c3ncc(F)c(OCC4CC4)n3)cc2F)CC1 [Example 372, 2-[1-[4-[4-(cyclopropylmethoxy)-5-fluoro-pyrimidin-2-yl]-2,6-difluoro-phenyl]-4-piperidyl]acetic acid] | < 200
O=C(O)CCCCc1ccc(-c2cccnc2OC2CCC2)cc1F [Example 245, 5-[4-(2-cyclobutoxy-pyridin-3-yl)-2-fluoro-phenyl]-pentanoic acid] | < 200
CCCCOc1cncc(-c2cc(F)c(N3CCC(CC(=O)O)CC3)c(F)c2)n1 [Example 343, 2-[1-[4-(6-butoxypyrazin-2-yl)-2,6-difluoro-phenyl]-4-piperidyl]acetic acid] | < 200
CC(C)Sc1ncccc1-c1cc(F)c(N2CC(CCC(=O)O)C2)c(F)c1 [Example 133, 3-[1-[2,6-difluoro-4-(2-isopropylsulfanyl-3-pyridyl)phenyl]azetidin-3-yl]propanoic acid] | 200 to 2000
Oc1cc(CNc2c(F)cc(-c3cccnc3OC3CCCC3)cc2F)on1 [Example 84, 5-[[4-[2-(cyclopentoxy)-3-pyridyl]-2,6-difluoro-anilino]methyl]isoxazol-3-ol] | < 200
Cc1cc(-c2cc(F)c(N3CCC(CC(=O)O)CC3)c(F)c2)nc(OC2CCC2)n1 [Example 325, 2-[1-[4-[2-(cyclobutoxy)-6-methyl-pyrimidin-4-yl]-2,6-difluoro-phenyl]-4-piperidyl]acetic acid] | 200 to 2000
CC(C)Sc1ncccc1-c1cc(F)c(OCc2cc(O)no2)c(F)c1 [Example 68, 5-[[2,6-difluoro-4-(2-isopropylsulfanyl-3-pyridyl)phenoxy]methyl]isoxazol-3-ol] | < 200
O=C(O)CCCOc1c(F)cc(-n2ccc3c(F)cccc32)cc1F [Example 471, 4-[2,6-difluoro-4-(4-fluoroindol-1-yl)phenoxy]butanoic acid] | < 200
O=C(O)CCCOc1ccc(-c2cccc3c2OC2(CCCC2)O3)cc1F [Example 289, 4-(2-fluoro-4-spiro[1,3-benzodioxol-2,1′-cyclopentan]-4-yl-phenoxy)butanoic acid] | 200 to 2000

Structure (SMILES) | EC50 [nM]
COc1cccc2ccn(-c3cc(F)c(OCCCC(=O)O)c(F)c3)c12 [Example 479, 4-[2,6-difluoro-4-(7-methoxyindol-1-yl)phenoxy]butanoic acid] | < 200
CC(C)Sc1ncccc1-c1cc(F)c(N2CCC3(CC2)CC3C(=O)O)c(F)c1 (stereo not shown) [Example 110, 6-[2,6-difluoro-4-(2-isopropylsulfanyl-3-pyridyl)phenyl]-6-azaspiro[2.5]octan-2-carboxylic acid] | 200 to 2000
O=C(O)CC1CCN(c2c(F)cc(-c3cccc(OCC4CCC4)n3)cc2F)C1 (stereo not shown) [Example 564, {1-[4-(6-cyclobutylmethoxy-pyridin-2-yl)-2,6-difluoro-phenyl]-pyrrolidin-3-yl}-acetic acid] | 200 to 2000
O=C(O)CCCCc1c(F)cc(-c2cccnc2OC2CCCC2)cc1F [Example 37, 5-[4-(2-cyclopentoxy-3-pyridyl)-2,6-difluoro-phenyl]pentanoic acid] | < 200
O=C(O)CC1CCN(c2c(F)cc(-n3ncc4ccc(OC5CCC5)cc43)cc2F)CC1 [Example 487, 2-[1-[4-[6-(cyclobutoxy)indazol-1-yl]-2,6-difluoro-phenyl]-4-piperidyl]acetic acid] | 200 to 2000
CC1(C)Cc2c(cccc2-c2cc(F)c(OCCCC(=O)O)c(F)c2)O1 [Example 291, 4-[4-(2,2-dimethyl-2,3-dihydro-benzofuran-4-yl)-2,6-difluoro-phenoxy]-butyric acid] | < 200
CC(C)CCc1cncc(-c2cc(F)c(N3CCC(CC(=O)O)CC3)c(F)c2)n1 [Example 370, 2-[1-[2,6-difluoro-4-(6-isopentylpyrazin-2-yl)phenyl]-4-piperidyl]acetic acid] | 200 to 2000
O=C(O)CC1CCN(c2c(F)cc(-c3csc(OC4CCC4)n3)cc2F)C1 (stereo not shown) [Example 582, {1-[4-(2-cyclobutoxy-thiazol-4-yl)-2,6-difluoro-phenyl]-pyrrolidin-3-yll}-acetic acid] | 200 to 2000
O=C(O)CCCOc1c(F)cc(-c2ccc(Cl)c(OC3CCC3)n2)cc1F [Example 533, 4-[4-(5-chloro-6-cyclobutoxy-pyridin-2-yl)-2,6-difluoro-phenoxy]-butyric acid] | 200 to 2000
Oc1cc(CSc2c(F)cc(-c3cccnc3OC3CCCC3)cc2F)on1 [Example 83, 5-[[4-[2-(cyclopentoxy)-3-pyridyl]-2,6-difluoro-phenyl]sulfanylmethyl]isoxazol-3-ol] | < 200
CC1(C)Cc2cc(Cl)cc(-c3ccc4c(c3)CCC(CCC(=O)O)S4)c2O1 (stereo not shown) [Example 282, 3-[6-(5-chloro-2,2-dimethyl-2,3-dihydro-benzofuran-7-yl)-thiochroman-2-yl]-propionic acid] | 200 to 2000
Cc1cc(OC2CCC2)nc(-c2cc(F)c(N3CCC(CC(=O)O)CC3)c(F)c2)c1 [Example 327, 2-[1-[4-[6-(cyclobutoxy)-4-methyl-2-pyridyl]-2,6-difluoro-phenyl]-4-piperidyl]acetic acid] | 200 to 2000
CC(C)COCc1cc(-c2cc(F)c(OCCCC(=O)O)c(F)c2)cs1 [Example 572, 4-[2,6-difluoro-4-(5-isobutoxymethyl-thiophen-3-yl)-phenoxy]-butanoic acid] | < 200
O=C(O)CCc1ccc2cc(-c3cccc(SC4CCCC4)n3)ccc2c1 [Example 143, 3-[6-(6-cyclopentylsulfanyl-pyridin-2-yl)-naphthalen-2-yl]-propanoic acid] | 2000 to 20000
O=C(O)CC1CN(c2c(F)cc(-c3cncc(OC4CCC4)n3)cc2F)C1 [Example 334, 2-[1-[4-[6-(cyclobutoxy)pyrazin-2-yl]-2,6-difluoro-phenyl]azetidin-3-yl]acetic acid] | < 200
O=C(O)CC1CCN(c2c(F)cc(-c3csc(OC4CCC4)n3)cc2F)CC1 [Example 326, 2-[1-[4-[2-(cyclobutoxy)thiazol-4-yl]-2,6-difluoro-phenyl]-4-piperidyl]acetic acid] | 200 to 2000
CC(C)Oc1ncccc1-c1ccc2cc(CCC(=O)O)ccc2c1 [Example 149, 3-[6-(2-isopropoxy-pyridin-3-yl)-naphthalen-2-yl]-propanoic acid] | < 200
O=C(O)CCCOc1ccc(-c2cccnc2SC2CCCC2)cc1F [Example 236, 4-[4-(2-cyclopentylsulfanyl-pyridin-3-yl)-2-fluoro-phenoxy]-butyric acid] | < 200
CCOc1ccnc(-c2cc(F)c(N3CCC(CC(=O)O)C3)c(F)c2)n1 (stereo not shown) [Example 501, 2-{1-[2,6-difluoro-4-(4-ethoxy-pyrimidin-2-yl)phenyl]pyrrolidin-3-yl}acetic acid] | < 200
COc1ccc(-c2cc(F)c(N(C)CCCC(=O)O)c(F)c2)nc1OC1CCC1 [Example 456, 4-[4-[6-(cyclobutoxy)-5-methoxy-2-pyridyl]-2,6-difluoro-N-methyl-anilino]butanoic acid] | < 200
